This assay has as its system 227483-062-R1-J1-PDC complex spheroids with HUVEC/MSC, viability. Briefly: Anticancer human tumor 227483-062-R1-J1-PDC patient-derived pancreatic carcinoma cell line growth inhibition [CLK]. Conditions: for viability, T/C: stronger effect = lower value. The text has this: A high-throughput screen of multi-cell type tumor spheroids was designed to identify active combinations of […] and targeted small molecules. Complex spheroids include a stromal component modeled by human endothelial cells (HUVEC) and fibroblasts modeled by human mesenchymal stem cells (MSCs). The concentration ranges selected for each drug and investigational agent were based upon clinically achievable concentrations if the clinical Cmax of the agent was known.
Compounds. The drugs and investigational agents: cirtuvivint (SM08502; NSC835563), CC-671 (NSC850746), vemurafenib (NSC761431), tapotoclax (NSC804041), sotorasib (NSC818433), adagrasib (NSC831453), MRTX-1133 (NSC836407), BAY2416964 (NSC825713), copanlisib (NSC816437), inavolisib (NSC800729), abemaciclib (NSC768073), osimertinib (NSC779217), entinostat (NSC756642), eltanexor (KPT-8602, NSC794443), venetoclax (NSC766270), ceralasertib (NSC777638), bortezomib (NSC756655), olaparib (NSC753686), talazoparib (NSC767125), alisertib (NSC759677), peposertib (NSC802822), gemcitabine (NSC613327), 5-fluorouracil (NSC19893), SN-38 (NSC673596), oxaliplatin (NSC266046), paclitaxel (NSC125973), and doxorubicin (NSC123127), were obtained from the National Cancer Institute (NCI) Developmental Therapeutics Program Chemical Repository. The FDA-approved anticancer drug set is available from the Developmental Therapeutics Program at https://dtp.cancer.gov/organization/dscb/obtaining/available plates.htm. […] The stock solutions were prepared in dimethyl sulfoxide (DMSO, Sigma-Aldrich, St. Louis, MO, cat. D2650), except for the platinum complexes which were prepared in saline (Quality Biological, Gaithersburg, MD, cat. 114-055-101), at 800-fold the tested concentration and stored at -70 degrees C prior to their use. All drugs and investigational agents were tested over a range starting from a high concentration at or near the clinical Cmax and decreasing in half-log increments. If the clinical Cmax for an agent had not been determined, the highest concentration tested was 10 microM.
Cell Culture. All cells were maintained in an incubator at 37 degrees C and 5% CO2 with 95% humidity. The PDC lines were cultured according to standard operating procedures established by the NCI PDMR. Briefly, all PDCs were thawed and cultured in Matrigel-coated flasks prepared with a working solution of 1X Ham's F-12 nutrient mix, without supplementation (Invitrogen, Waltham, MA, cat. 11765054), 100 U/mL penicillin-streptomycin (Invitrogen, cat. 15140122), and 2.5% Matrigel (Corning Inc., Corning, NY, cat. 354248) for the first three passages. The 947758-054-R-J2-PDC line was cultured in 6B/Colon 1A media, which includes advanced DMEM/F-12 (Thermo Fisher Scientific, cat. 12634028), 10 mM HEPES (Thermo Fisher Scientific, cat. 15630080), 1X GlutaMAX supplement (Thermo Fisher Scientific, cat. 35050061), 0.1 mg/mL primocin (InvivoGen, cat. ant-pm-2), 10% defined fetal bovine serum, heat inactivated (HyClone Laboratories Inc., cat. SH30070.03HI), 1.25 mM N-Acetyl-L-cysteine (Sigma-Aldrich, cat. A9165), 10 mM nicotinamide (Sigma-Aldrich, cat. N0636), 1X B-27 supplement (Thermo Fisher Scientific, cat. 17504044), 1X N-2 supplement (Thermo Fisher Scientific, cat. 17502048), and 10 microM Y-27632 dihydrochloride (Tocris Bioscience, cat. 1254). The 876862-298-R-J1-PDC was cultured in 6E media, which includes all 6B/Colon 1A media components plus 50% L-WRN conditioned media (ATCC, cat. CRL-3276), 50 ng/mL recombinant human EGF recombinant protein (hEGF; Thermo Fisher Scientific, cat. PHG0311), 10 ng/mL recombinant human fibroblast growth factor 10 (hGFG-10; PeproTech, cat. 100-26), 1 ng/mL recombinant human fibroblast growth factor 2 (hFGF-2; PeproTech, cat. 100-18B), and 1 µM prostaglandin E2 (PGE2; Tocris, cat. 2296). The 227483-062-R1-J1-PDC line was cultured in Panc media, containing all 6E components except hFGF-2, with the addition of 500 nM SB-431542 (Selleckchem, cat. S1067) and 10 nM gastrin (Tocris, cat. 3006). […]

Where “and” joins values, the source holds several entries; their conditions need not be identical. Equal values may be shown once.
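Also: spheroids exposed to compounds for seven days before readout.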
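For viability, T/C in this document: percent of DMSO vehicle control luminescence as 100% viability.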

Usually viability, T/C stands for the result in the treated group divided by that in the control group, in per cent. One may read the IC50 as the concentration that gives 50% inhibition. With `C#Cc1c(F)ccc2cc(O)cc(-c3ncc4c(N5CC6CCC(C5)N6)nc(OCC56CCCN5CC(F)C6)nc4c3F)c12` (stereo unspecified), the viability, T/C by setting is: (compound 0.0316 µM) 102% and 90.9%; (compound 0.1 µM) 93.7% and 102%; (compound 0.316 µM) 120% and 105%; (compound 1 µM) 130% and 104%; (compound 3.16 µM) 106% and 124%; (compound 10 µM) 98.6% and 78.4%. For the same compound, where the note is “curve of compound”, the IC50 was more than 10000 nM.
In the case of `C=C(F)C(=O)N1CCN(c2nc(OCC3CCCN3C)nc3c2CCN(c2cccc4cccc(Cl)c24)C3)CC1CC#N` (stereo unspecified), the viability, T/C by setting is: (compound 0.0316 µM) 107% and 89.9%; (compound 0.1 µM) 108% and 97.9%; (compound 0.316 µM) 109% and 91.9%; (compound 1 µM) 113% and 122%; (compound 3.16 µM) 86.3% and 89%; (compound 10 µM) 19% and 28%. Besides, the IC50 (curve of compound) is 5880 nM and 6600 nM.
As for `C=CC(=O)N1CCN(c2nc(=O)n(-c3c(C)ccnc3C(C)C)c3nc(-c4c(O)cccc4F)c(F)cc23)C(C)C1` (stereo unspecified), the viability, T/C reads like this: (compound 0.0316 µM) 88.6% and 88%; (compound 0.1 µM) 83.2% and 92.8%; (compound 0.316 µM) 86% and 85.4%; (compound 1 µM) 95.2% and 125%; (compound 3.16 µM) 110% and 104%; (compound 10 µM) 109% and 95.8%. Moreover, the IC50 (curve of compound) is more than 10000 nM.
`C=CC(=O)Nc1cc(Nc2nccc(-c3cn(C)c4ccccc34)n2)c(OC)cc1N(C)CCN(C)C`: the viability, T/C runs as follows: (compound 0.000949 µM) 99.8% and 83%; (compound 0.003 µM) 104% and 92.1%; (compound 0.00949 µM) 103% and 119%; (compound 0.03 µM) 113% and 109%; (compound 0.0949 µM) 95.1% and 102%; (compound 0.3 µM) 84.3% and 81.2%. Where the note is “curve of compound”, the IC50 is more than 300 nM.
With `CC(C)CC(NC(=O)C(Cc1ccccc1)NC(=O)c1cnccn1)B(O)O` (stereo unspecified), the viability, T/C is, setting by setting: (compound 0.000949 µM) 86.6% and 81.9%; (compound 0.003 µM) 2.59% and 1.33%; (compound 0.00949 µM) 0.56% and 0.57%; (compound 0.03 µM) 2.03% and 0.48%; (compound 0.0949 µM) 0.64% and 0.38%; (compound 0.3 µM) 0.96% and 0.35%. Where the note is “curve of compound”, the IC50 was 1.57 nM and 1.5 nM.
Take `CC(CO)NC(=O)c1cc(-c2ccc(Cl)cc2)nn(-c2cnn(C)c2)c1=O` (stereo unspecified): the viability, T/C by setting is: (compound 0.0316 µM) 100% and 88.3%; (compound 0.1 µM) 106% and 97.9%; (compound 0.316 µM) 95% and 100%; (compound 1 µM) 113% and 88.8%; (compound 3.16 µM) 88.7% and 108%; (compound 10 µM) 90.4% and 87%. Moreover, the IC50 (curve of compound) was more than 10000 nM.
As for `CC(Nc1ccc2c(c1)OCCn1cc(N3C(=O)OCC3C(F)F)nc1-2)C(N)=O` (stereo unspecified), the viability, T/C was 89.1% and 95.7% (compound 0.0316 µM); 104% and 89.6% (compound 0.1 µM); 82.3% and 76.5% (compound 0.316 µM); 82.4% and 85.9% (compound 1 µM); 69.8% and 72.3% (compound 3.16 µM); 82.9% and 69.1% (compound 10 µM). Further, the IC50 (curve of compound) was more than 10000 nM.
In the case of `CCCS(=O)(=O)Nc1ccc(F)c(C(=O)c2c[nH]c3ncc(-c4ccc(Cl)cc4)cc23)c1F`, the viability, T/C runs as follows: (compound 0.0316 µM) 101% and 92.4%; (compound 0.1 µM) 128% and 96.7%; (compound 0.316 µM) 106% and 92.3%; (compound 1 µM) 125% and 99%; (compound 3.16 µM) 129% and 98.8%; (compound 10 µM) 107% and 80.7%. Besides, where the note is “curve of compound”, the IC50 is more than 10000 nM.
Consider `CCN1CCN(Cc2ccc(Nc3ncc(F)c(-c4cc(F)c5nc(C)n(C(C)C)c5c4)n3)nc2)CC1`, for which the viability, T/C by setting is: (compound 0.00316 µM) 93.6% and 83.6%; (compound 0.01 µM) 110% and 94.8%; (compound 0.0316 µM) 92.8% and 79.4%; (compound 0.1 µM) 98.2% and 76.2%; (compound 0.316 µM) 95.1% and 73.4%; (compound 1 µM) 88.3% and 82%. The half-inhibitory concentration (IC50) (curve of compound) is more than 1000 nM.
With `CCc1c2c(nc3ccc(O)cc13)-c1cc3c(c(=O)n1C2)COC(=O)[C@]3(O)CC`, the viability, T/C (compound 0.00316 µM) was 77.7% and 88.3%; the viability, T/C (compound 0.01 µM) is 94.4% and 86.2%; the viability, T/C (compound 0.0316 µM) was 79.4% and 58.8%; the viability, T/C (compound 0.1 µM) is 55.3% and 49%; the viability, T/C (compound 0.316 µM) is 54.1% and 53%; the viability, T/C (compound 1 µM) is 36.8% and 33.1%. Besides, the half-maximal inhibitory concentration (IC50) (curve of compound) is 207 nM and 71.7 nM.
As for `CN1CCN(c2cc(C(=O)Nc3cc4cc(-c5cnn(C)c5)ccc4cn3)ccn2)CC1`, the viability, T/C (compound 0.0316 µM) was 95.7% [middle of 12 runs]; the viability, T/C (compound 0.1 µM) is 62.8% [middle of 12 runs]; the viability, T/C (compound 0.316 µM) is 5.79% [middle of 12 runs]; the viability, T/C (compound 1 µM) was 1.97% [middle of 12 runs]; the viability, T/C (compound 3.16 µM) was 3.33% [middle of 12 runs]; the viability, T/C (compound 10 µM) was 2.87% [middle of 12 runs]. Further, the IC50 (compound alone, run of 09/18/2023) is 129 nM [middle of 11 runs].
As for `CNC(=O)c1ccc(Nc2nc(OC3CCCC3)c3c(-c4ccc5nc(C)oc5c4)c[nH]c3n2)c(OC)c1`, the viability, T/C (compound 0.0316 µM) is 96.1% [middle of 12 runs]; the viability, T/C (compound 0.1 µM) is 88.2% [middle of 12 runs]; the viability, T/C (compound 0.316 µM) is 85.1% [middle of 12 runs]; the viability, T/C (compound 1 µM) was 61.6% [middle of 11 runs]; the viability, T/C (compound 3.16 µM) is 45.4% [middle of 12 runs]; the viability, T/C (compound 10 µM) was 42.9% [middle of 12 runs].
As for `COC1C=CCC(C)C(C)S(=O)(=O)NC(=O)c2ccc3c(c2)N(CC2CCC21)CC1(CCCc2cc(Cl)ccc21)CO3` (stereo unspecified), the viability, T/C was 93.6% and 86.3% (compound 0.0316 µM); 93.9% and 81.1% (compound 0.1 µM); 95.4% and 95.6% (compound 0.316 µM); 106% and 91.1% (compound 1 µM); 97.3% and 83.1% (compound 3.16 µM); 25.9% and 22.8% (compound 10 µM). Besides, the 50% inhibitory concentration (IC50) (curve of compound) is 6770 nM and 5960 nM.
`COc1c(OCCCN2CCOCC2)ccc2c3n(c(=NC(=O)c4cnc(N)nc4)nc12)CCN3`: the viability, T/C was 92.4% and 100% (compound 0.00316 µM); 90.7% and 83.8% (compound 0.01 µM); 85% and 72.6% (compound 0.0316 µM); 56.2% and 75.9% (compound 0.1 µM); 55.8% and 59.5% (compound 0.316 µM); 45.3% and 40.5% (compound 1 µM). In addition, for the setting “curve of compound”, the IC50 is > 1000 nM and 575 nM.
In the case of `Cn1ncnc1[C@H]1c2n[nH]c(=O)c3cc(F)cc(c23)N[C@@H]1c1ccc(F)cc1`, the viability, T/C is, setting by setting: (compound 0.000316 µM) 93.6% and 98%; (compound 0.001 µM) 127% and 115%; (compound 0.00316 µM) 91.9% and 102%; (compound 0.01 µM) 120% and 97%; (compound 0.0316 µM) 110% and 101%; (compound 0.1 µM) 104% and 98%. Further, the IC50 (curve of compound) was more than 100 nM.
For the compound `NC(=O)C(=Cn1cnc(-c2cc(C(F)(F)F)cc(C(F)(F)F)c2)n1)c1cncnc1`, the viability, T/C reads like this: (compound 0.00949 µM) 78.8% and 82.5%; (compound 0.03 µM) 85.2% and 85.8%; (compound 0.0949 µM) 83.2% and 62.7%; (compound 0.3 µM) 87.1% and 54.1%; (compound 0.949 µM) 48.8% and 28%; (compound 3 µM) 15% and 10.8%. The IC50 (curve of compound) is 911 nM and 313 nM.

These data come from PubChem BioAssay AID2060623 (Molecular Pharmacology Branch, DTP, NCI, 2025).
